Experimental findings from ChEMBL document CHEMBL3232931 (J Med Chem, 2014) are described below.

Data set [1] is described as follows: (§1) Inhibition of SARS coronavirus papain-like protease (amino acids 1541 to 1855) expressed in Escherichia coli BL21 (DE3) cells assessed as decrease in AMC release using Z-RLRGG-AMC as substrate by multimode plate reader analysis. Details: species or system Severe acute respiratory syndrome-related coronavirus.
In data set [2] the target is Replicase polyprotein 1a (Human coronavirus NL63) (UniProt P0C6U6). The data set is described as follows: Inhibition of human coronavirus NL63 PLP2 (amino acids 1565 to 1894) expressed in Escherichia coli BL21 (DE3) cells assessed as reduction of AMC release using Z-RLRGG-AMC as substrate at 100 uM by multimode plate reader analysis.
Target sequence in this assay (P0C6U6 whole entry, the tested form may be a part): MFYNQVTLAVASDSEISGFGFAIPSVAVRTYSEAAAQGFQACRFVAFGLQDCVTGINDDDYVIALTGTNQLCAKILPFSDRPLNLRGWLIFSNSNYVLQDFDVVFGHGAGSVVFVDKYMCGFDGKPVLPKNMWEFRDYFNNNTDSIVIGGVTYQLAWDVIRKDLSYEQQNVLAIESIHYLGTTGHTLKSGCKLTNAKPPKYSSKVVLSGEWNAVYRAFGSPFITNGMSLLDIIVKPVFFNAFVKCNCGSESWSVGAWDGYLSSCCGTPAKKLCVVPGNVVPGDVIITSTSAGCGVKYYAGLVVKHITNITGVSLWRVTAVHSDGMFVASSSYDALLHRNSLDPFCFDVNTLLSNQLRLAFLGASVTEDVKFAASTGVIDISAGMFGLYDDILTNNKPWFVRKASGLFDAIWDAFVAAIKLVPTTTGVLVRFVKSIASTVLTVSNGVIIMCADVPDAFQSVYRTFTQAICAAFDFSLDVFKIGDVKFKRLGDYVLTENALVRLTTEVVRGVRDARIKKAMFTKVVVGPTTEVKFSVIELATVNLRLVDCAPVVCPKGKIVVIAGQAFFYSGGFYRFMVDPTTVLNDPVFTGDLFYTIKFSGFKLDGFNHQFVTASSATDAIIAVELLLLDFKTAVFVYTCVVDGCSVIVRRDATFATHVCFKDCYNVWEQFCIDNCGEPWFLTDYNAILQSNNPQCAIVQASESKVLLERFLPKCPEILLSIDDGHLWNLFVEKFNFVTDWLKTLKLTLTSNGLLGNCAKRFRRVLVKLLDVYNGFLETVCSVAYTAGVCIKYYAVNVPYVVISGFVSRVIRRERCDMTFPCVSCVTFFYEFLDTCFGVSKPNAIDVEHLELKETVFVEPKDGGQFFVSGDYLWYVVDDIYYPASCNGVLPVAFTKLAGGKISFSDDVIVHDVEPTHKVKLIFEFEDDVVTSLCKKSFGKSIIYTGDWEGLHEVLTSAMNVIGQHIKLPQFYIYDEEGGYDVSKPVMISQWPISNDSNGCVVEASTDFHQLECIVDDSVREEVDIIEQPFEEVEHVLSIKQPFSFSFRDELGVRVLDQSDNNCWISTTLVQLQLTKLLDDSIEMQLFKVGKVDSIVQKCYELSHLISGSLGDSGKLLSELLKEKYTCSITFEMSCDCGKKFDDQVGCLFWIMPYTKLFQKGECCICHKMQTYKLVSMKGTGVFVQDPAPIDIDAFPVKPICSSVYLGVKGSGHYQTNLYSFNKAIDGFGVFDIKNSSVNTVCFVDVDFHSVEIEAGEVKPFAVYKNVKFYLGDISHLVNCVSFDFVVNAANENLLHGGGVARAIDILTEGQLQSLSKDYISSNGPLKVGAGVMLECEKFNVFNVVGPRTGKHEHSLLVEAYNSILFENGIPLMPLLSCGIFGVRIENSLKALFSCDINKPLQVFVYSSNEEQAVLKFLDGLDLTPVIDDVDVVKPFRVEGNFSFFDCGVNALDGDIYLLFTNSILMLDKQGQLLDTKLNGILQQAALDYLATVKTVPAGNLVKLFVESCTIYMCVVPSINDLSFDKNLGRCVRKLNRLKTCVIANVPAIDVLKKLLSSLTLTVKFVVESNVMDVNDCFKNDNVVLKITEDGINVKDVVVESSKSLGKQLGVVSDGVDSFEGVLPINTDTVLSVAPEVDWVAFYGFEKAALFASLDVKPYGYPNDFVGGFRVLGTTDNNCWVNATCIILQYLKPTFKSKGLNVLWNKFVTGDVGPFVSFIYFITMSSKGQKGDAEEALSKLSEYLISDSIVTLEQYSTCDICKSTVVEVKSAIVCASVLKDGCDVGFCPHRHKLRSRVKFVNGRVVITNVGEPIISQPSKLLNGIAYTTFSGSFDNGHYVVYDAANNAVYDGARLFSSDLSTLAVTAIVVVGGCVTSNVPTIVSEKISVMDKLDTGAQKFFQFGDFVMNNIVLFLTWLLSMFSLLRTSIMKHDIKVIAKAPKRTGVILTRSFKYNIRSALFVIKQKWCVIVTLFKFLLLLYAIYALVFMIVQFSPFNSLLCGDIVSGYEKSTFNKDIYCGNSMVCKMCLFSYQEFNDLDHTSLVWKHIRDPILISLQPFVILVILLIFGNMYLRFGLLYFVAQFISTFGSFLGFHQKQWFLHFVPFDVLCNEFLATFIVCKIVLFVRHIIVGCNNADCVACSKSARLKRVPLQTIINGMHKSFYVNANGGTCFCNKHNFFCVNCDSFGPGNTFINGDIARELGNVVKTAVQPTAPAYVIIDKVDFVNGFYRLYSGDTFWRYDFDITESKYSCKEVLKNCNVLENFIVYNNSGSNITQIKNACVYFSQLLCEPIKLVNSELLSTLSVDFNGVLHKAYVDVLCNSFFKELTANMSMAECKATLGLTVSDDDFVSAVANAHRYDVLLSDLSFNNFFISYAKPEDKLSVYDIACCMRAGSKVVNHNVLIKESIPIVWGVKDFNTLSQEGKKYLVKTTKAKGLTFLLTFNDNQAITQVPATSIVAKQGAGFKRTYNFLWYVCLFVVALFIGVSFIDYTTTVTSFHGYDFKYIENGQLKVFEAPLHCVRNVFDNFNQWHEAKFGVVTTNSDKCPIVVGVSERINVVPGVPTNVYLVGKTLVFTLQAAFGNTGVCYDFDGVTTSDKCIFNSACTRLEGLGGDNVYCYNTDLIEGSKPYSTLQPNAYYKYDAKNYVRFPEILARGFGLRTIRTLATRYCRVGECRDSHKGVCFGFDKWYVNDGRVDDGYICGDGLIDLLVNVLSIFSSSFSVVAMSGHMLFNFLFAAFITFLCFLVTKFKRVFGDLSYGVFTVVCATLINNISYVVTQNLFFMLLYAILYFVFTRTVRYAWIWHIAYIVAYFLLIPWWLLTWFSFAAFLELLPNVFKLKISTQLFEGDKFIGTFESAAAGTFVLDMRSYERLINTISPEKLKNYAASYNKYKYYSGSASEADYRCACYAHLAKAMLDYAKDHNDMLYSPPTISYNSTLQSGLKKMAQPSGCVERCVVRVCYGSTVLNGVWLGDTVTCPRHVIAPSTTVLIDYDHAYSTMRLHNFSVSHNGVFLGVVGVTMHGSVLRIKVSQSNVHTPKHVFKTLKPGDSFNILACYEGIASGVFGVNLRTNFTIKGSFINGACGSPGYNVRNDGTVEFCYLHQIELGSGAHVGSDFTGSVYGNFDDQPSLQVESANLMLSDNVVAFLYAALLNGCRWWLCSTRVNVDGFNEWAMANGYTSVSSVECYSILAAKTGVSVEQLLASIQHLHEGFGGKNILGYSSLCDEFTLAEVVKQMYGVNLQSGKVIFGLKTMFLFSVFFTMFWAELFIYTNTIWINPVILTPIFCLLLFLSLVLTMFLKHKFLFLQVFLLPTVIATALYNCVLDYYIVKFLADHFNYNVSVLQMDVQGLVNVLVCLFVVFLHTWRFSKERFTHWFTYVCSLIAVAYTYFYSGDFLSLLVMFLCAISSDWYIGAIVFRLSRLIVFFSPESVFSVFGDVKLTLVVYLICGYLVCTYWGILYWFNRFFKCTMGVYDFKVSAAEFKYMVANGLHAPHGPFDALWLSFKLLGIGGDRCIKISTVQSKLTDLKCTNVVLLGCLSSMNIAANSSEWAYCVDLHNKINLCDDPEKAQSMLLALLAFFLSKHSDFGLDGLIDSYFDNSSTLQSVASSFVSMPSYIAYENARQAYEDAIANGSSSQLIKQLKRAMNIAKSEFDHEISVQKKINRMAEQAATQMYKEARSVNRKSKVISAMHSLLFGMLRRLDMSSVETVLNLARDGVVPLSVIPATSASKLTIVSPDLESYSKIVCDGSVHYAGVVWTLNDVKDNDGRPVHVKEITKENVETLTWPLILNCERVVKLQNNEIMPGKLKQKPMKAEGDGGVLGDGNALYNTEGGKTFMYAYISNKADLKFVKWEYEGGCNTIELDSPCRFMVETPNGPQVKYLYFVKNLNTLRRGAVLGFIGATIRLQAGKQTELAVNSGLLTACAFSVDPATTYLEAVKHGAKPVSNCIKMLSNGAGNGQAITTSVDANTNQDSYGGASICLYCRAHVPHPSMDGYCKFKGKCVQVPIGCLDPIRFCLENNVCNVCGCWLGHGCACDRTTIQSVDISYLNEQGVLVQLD
In data set [3] the test system is BL21-DE3. The data set is described as §1. As to conditions: Severe acute respiratory syndrome-related coronavirus.
Data set [4] has as its target Replicase polyprotein 1a (Human coronavirus NL63) (UniProt P0C6U6). The data set is described as follows: (§2) Inhibition of human coronavirus NL63 PLP2 (amino acids 1565 to 1894) expressed in Escherichia coli BL21 (DE3) cells assessed as reduction of AMC release using Z-RLRGG-AMC as substrate by multimode plate reader analysis.
Another data set deals with Replicase polyprotein 1a (Human coronavirus NL63, UniProt P0C6U6). The description is as §2.
The next data set concerns Liver. Description: Half life in mouse liver microsomes at 1 uM. Format: ADME.
Data set [5] in a line: Metabolic stability in mouse liver microsomes assessed as parent compound remaining at 1 uM after 15 mins. It counts as ADME. As to conditions: read-out: Stability.
The nature of data set [6]: Cytotoxicity against african green monkey Vero E6 cells assessed as cell viability after 48 hrs by Cell Titer-Glo luminescent assay. Format: cell-based. As to conditions: chlorocebus sabaeus. For orientation: In ATP-based viability assays light output follows the ATP content of the culture.
In a further data set the test system is HEK293. Description: Cytotoxicity against human HEK293 cells assessed as cell viability after 48 hrs by Cell Titer-Glo luminescent assay. Format: cell-based. As to conditions: hek293, 48 h.
In data set [7] the test system is BL21-DE3. Description: Inhibition of SARS coronavirus papain-like protease (amino acids 1541 to 1855) expressed in Escherichia coli BL21 (DE3) cells assessed as decrease in AMC release using Z-RLRGG-AMC as substrate by serum shift assay based multimode plate reader analysis in presence of 5 to 20% human serum albumin. As to conditions: Severe acute respiratory syndrome-related coronavirus.

In a further data set the test system is SARS-CoV. The data set is described as follows: Antiviral activity against SARS coronavirus infected in african green monkey Vero E6 cells assessed as cell viability after 48 hrs by Cell Titer-Glo luminescent assay. Format: functional, organism-based. As to conditions: Severe acute respiratory syndrome-related coronavirus.
A short description of data set [8]: Therapeutic index, ratio of CC50 for african green monkey Vero E6 cells to EC50 for SARS coronavirus infected in african green monkey Vero E6 cells. Format: cell-based. As to conditions: read-out: Ratio CC50/EC50.

Each structure is given as a SMILES string. Active and inactive are the calls of the source. The calls are words filed in the database; no cut-off is given here.

A word on the IC50: it is the concentration needed to halve the response being measured. For the molecule `CC(=O)NCc1cccc(CNC(=O)C2CCN([C@H](C)c3cccc4ccccc34)CC2)c1`, the IC50 in data set [1] is 20.4 µM. A word on the inhibition: it is how much of the control response was suppressed. With `C[C@H](c1cccc2ccccc12)N1CCC(C(=O)NCc2ccc(F)c(F)c2)CC1`, in [2], the inhibition is > 30%. Besides, the Imax is 78% in the data set on BL21-DE3 [3] and 48% in data set [4]. In addition, the IC50 in [1] is 29.2 µM; at Replicase polyprotein 1a it was 44 µM. As to `C[C@H](c1cccc2ccccc12)N1CCC(C(=O)NCc2cccc(Cl)c2)CC1`, in data set [1], the IC50 is 27.2 µM.

With `CCc1ccc(CNC(=O)C2CCN([C@H](C)c3cccc4ccccc34)CC2)cc1`, the IC50 in [1] amounted to 0.47 µM. One may read the CC50 as the concentration giving 50% cytotoxicity. A word on the EC50: it is the midpoint of the concentration-response curve. Regarding `COc1cc(CNC(=O)C2CCN([C@H](C)c3cccc4ccccc34)CC2)ccn1`, the inhibition in [2] is > 30%. This molecule also gave a t1/2 with Liver of 8 min. Moreover, the remaining at 0.25 h, 1 µM in data set [5] came to 30%. Besides, the results for the Imax (in the data set with BL21-DE3 [3]; in [4]) were 100% and 67%, respectively. Further, the IC50 in data set [1] came out at 0.35 µM; at Replicase polyprotein 1a, 59 µM. For the same molecule, the CC50 (in [6]; with HEK293) was > 100 µM in each case. Besides, in the data set with BL21-DE3 [7], the inhibition result is “Active”. Moreover, the 50% effective concentration (EC50) in the data set on SARS-CoV amounted to 9.5 µM. In the case of `O=C(NCc1ccc2c(c1)OCO2)C1CCN(C(CO)c2cccc3ccccc23)CC1` (racemic), in data set [1], the 50% inhibitory concentration (IC50) was found to be 32 µM.

For the molecule `COCC(c1cccc2ccccc12)N1CCC(C(=O)NCc2ccc3c(c2)OCO3)CC1` (racemic), the IC50 in [1] was > 100 µM. `COC[C@H](NC(=O)C1CCN([C@H](C)c2cccc3ccccc23)CC1)c1ccccc1`: the half-maximal inhibitory concentration (IC50) in data set [1] stood at 18 µM.

For the molecule `C[C@H](c1cccc2ccccc12)N1CCC(C(=O)NCCc2cccc(F)c2)CC1`, the IC50 in data set [1] was found to be 1.9 µM.

Regarding `C[C@H](NC(=O)C1CCN([C@H](C)c2cccc3ccccc23)CC1)c1ccccc1`, the half-inhibitory concentration (IC50) in data set [1] was found to be 12.7 µM. With `CC(c1cccc2cnccc12)N1CCC(C(=O)NCc2cccc(F)c2)CC1` (racemic), the IC50 in data set [1] is 6.8 µM. Besides, the EC50 with SARS-CoV is > 50 µM. For `CC(c1cccc2cccnc12)N1CCC(C(=O)NCc2cccc(F)c2)CC1` (racemic), in that order: 7 µM and > 50 µM. Take `C[C@H](c1cccc2ccccc12)N1CCC(C(=O)NCc2cccnc2)CC1`: in data set [1], the IC50 came to 26.3 µM. On to `CNC(=O)c1ccc(CNC(=O)C2CCN([C@H](C)c3cccc4ccccc34)CC2)cc1`, for which the IC50 in [1] came to 0.6 µM. On the same count and under the same terms, next, `C[C@H](c1cccc2ccccc12)N1CCC(C(=O)NCc2ccncc2)CC1`: 18.3 µM; `CC(c1cccc2ncccc12)N1CCC(C(=O)NCc2cccc(F)c2)CC1` (racemic): 4.5 µM. Turning to `CCC(c1cccc2ccccc12)N1CCC(C(=O)NCc2ccc3c(c2)OCO3)CC1` (racemic), the IC50 in data set [1] turned out to be 17.2 µM. Same read-out and setting: next, `C[C@H](c1cccc2ccccc12)N1CCC(C(=O)NCc2ccc(Cl)cc2)CC1`: 0.58 µM. Same read-out and setting: to `O=C(NCc1cccc(F)c1)C1CCN(C2CCCc3ccc4ccccc4c32)CC1` (stereo not drawn) belongs 5.1 µM; to `CC(c1nccc2ccccc12)N1CCC(C(=O)NCc2cccc(F)c2)CC1` (racemic), 30.8 µM.

For the molecule `C[C@H](c1cccc2ccccc12)N1CCC(C(=O)NCc2ccccc2)CC1`, in [1], the IC50 is 2.2 µM. Moreover, the EC50 in the data set with SARS-CoV was > 50 µM.

Turning to `O=C(NCc1ccc2c(c1)OCO2)C1CCN(C(Cc2ccccc2)c2cccc3ccccc23)CC1` (racemic), the IC50 in [1] was > 100 µM. As for `CC(=O)Nc1ccc(CNC(=O)C2CCN([C@H](C)c3cccc4ccccc34)CC2)cc1`, in data set [2], the inhibition is > 30%. Also, the Imax in the data set on BL21-DE3 [3] amounted to 94%; in data set [4] it was 42%. For the same molecule, the IC50 in [1] was found to be 5.7 µM; at Replicase polyprotein 1a it was 37 µM. With `C[C@H](c1cccc2ccccc12)N1CCC(C(=O)N[C@H](C)c2ccccc2)CC1`, the IC50 in [1] worked out at 13.5 µM. In the case of `C[C@H](c1cccc2ccccc12)N1CCC(C(=O)NCCc2ccc(Cl)cc2)CC1`, the IC50 in data set [1] is 1.6 µM. `COC[C@@H](NC(=O)C1CCN([C@H](C)c2cccc3ccccc23)CC1)c1ccccc1`: the IC50 in [1] is 1.9 µM. In addition, the CC50 (in data set [6]; in the data set on HEK293) was > 100 µM throughout. In addition, the selectivity ratio in [8] was > 8.5. For the same molecule, in the data set with BL21-DE3 [7], the inhibition entry is “Active”. In the data set on SARS-CoV, the EC50 was found to be 11.7 µM.

Regarding `CNC(=O)c1cccc(CNC(=O)C2CCN([C@H](C)c3cccc4ccccc34)CC2)c1`, the IC50 in data set [1] amounted to 0.63 µM.
